Data published in patent publication US20200131144A1, “AMINE OR (THIO)AMIDE CONTAINING LXR MODULATORS” (Phenex-FXR GmbH, priority 2017, published 2020).

Tests used:
LXRα full length (FL) = target: T1, LXRα full length (FL) (Homo sapiens, UniProt Q13133); assay: LXR Gal4 reporter transient transfection assay, mammalian two-hybrid, FL-M2H Gal4α; assay type: cell-based; conditions: HEK293 cells; inverse agonist unless *
T1 construct: the full length (FL) proteins of LXRα (amino acids 1-447); NP005684; expressed in transfected cells; host or cells: HEK293
T1 sequence (Q13133 1-447): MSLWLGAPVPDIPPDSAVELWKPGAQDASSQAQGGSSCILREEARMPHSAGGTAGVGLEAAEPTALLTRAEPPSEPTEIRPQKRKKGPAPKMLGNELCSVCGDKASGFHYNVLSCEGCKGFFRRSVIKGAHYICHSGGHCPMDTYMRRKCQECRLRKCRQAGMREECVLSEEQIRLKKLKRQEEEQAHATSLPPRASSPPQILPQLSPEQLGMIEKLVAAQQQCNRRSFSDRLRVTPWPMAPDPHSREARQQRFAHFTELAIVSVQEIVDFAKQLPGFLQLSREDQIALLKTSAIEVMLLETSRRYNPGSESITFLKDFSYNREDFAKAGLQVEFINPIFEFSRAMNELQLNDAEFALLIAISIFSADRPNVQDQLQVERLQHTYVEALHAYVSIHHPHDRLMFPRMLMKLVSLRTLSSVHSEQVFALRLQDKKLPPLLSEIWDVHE
Procedure, shortened: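 HEK293 cells transiently cotransfected with NFkB-AD fusions of full-length or LBD LXRα/β, GAL4-DBD fusions of SRC1 coactivator or NCoR corepressor domains, GAL4-driven firefly luciferase and Renilla control. Compound added 4 h post-transfection (≤0.2% DMSO), 16 h incubation; firefly and Renilla luminescence read sequentially.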

[1] = target: T2, GST-LXRβ ligand-binding domain (Homo sapiens, UniProt P55055, INS174Q); assay: TR-FRETβ activity assay (NCoA3 coactivator peptide recruitment); assay type: biochemical; conditions: 1 μM 24(S)-25-epoxycholesterol as prestimulating agonist; inverse agonist unless *
T2 construct: amino acids 156-461; NP009052; made in house; host or cells: E. coli
T2 sequence (P55055 with tags, fused parts or gaps INS174Q limits assumed): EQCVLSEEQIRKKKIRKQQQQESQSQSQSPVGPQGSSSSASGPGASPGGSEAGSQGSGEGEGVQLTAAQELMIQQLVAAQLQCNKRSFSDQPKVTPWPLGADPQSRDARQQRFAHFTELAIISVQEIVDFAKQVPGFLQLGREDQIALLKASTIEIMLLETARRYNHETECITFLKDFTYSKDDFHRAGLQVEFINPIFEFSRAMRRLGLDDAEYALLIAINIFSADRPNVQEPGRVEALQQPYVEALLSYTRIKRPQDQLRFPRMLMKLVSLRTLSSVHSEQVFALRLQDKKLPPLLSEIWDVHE
Procedure, shortened: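 E. coli-expressed GST-LXRβ LBD (aa 156-461, 76 nM) with biotinylated NCoA3 peptide (400 nM), anti-GST-Tb cryptate donor and streptavidin-XL665 acceptor in 240 mM KCl, BSA, 0.002% Triton X-100. Equilibrated 1 h at 4° C; TR-FRET read at 615/665 nm, triplicates.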

EC50 (LXRα full length (FL)) [nM]	EC50 [1] [nM]	Structure (SMILES)
< 100	< 100	Cc1ccc2ccccc2c1C(=O)N(Cc1ccc(C(F)(F)F)o1)Cc1ccc(-c2cccc(C(C)(C)C(=O)O)c2)cc1C#N [27/7]
< 100	1000 to 10000	CCc1nc2ccccc2c(C(=O)N(Cc2ccc(-c3cccc(C(C)(C)C(=O)O)c3)cc2)Cc2ccc(C(F)(F)F)o2)c1C [27/43]
< 100	< 100	CC(C)(C(=O)O)c1cccc(-c2ccc(CN(Cc3ccc(C(F)(F)F)o3)C(=O)c3c4ccccc4cc4ccccc34)cc2)c1 [27/47]
< 100	< 100	Cc1ccc2ccccc2c1CN(Cc1ccc(-c2cccc(C(C)(C)C(=O)O)c2)cc1)Cc1ccc(C(F)(F)F)o1 [Example 24, 2-Methyl-2-(4′-((((2-methylnaphthalen-1-yl)methyl)((5-(trifluoromethyl)furan-2-yl)methyl)amino)methyl)-[1,1′-biphenyl]-3-yl)propanoic acid]
< 100	100 to 1000	Cc1nc2ccccc2c(C(=O)N(Cc2ccc(-c3cccc(C(C)(C)C(=O)O)c3)cc2)Cc2ccc(C(F)(F)F)o2)c1C [27/79]
	1000 to 10000	Cc1ccc2ccccc2c1C(=O)N(Cc1ccc(-c2cccc(S(=O)(=O)CC(=O)O)c2)cc1)Cc1ccc(C(F)(F)F)o1 [Example 9]
< 100	100 to 1000	Cc1nc2cccnc2c(C(=O)N(Cc2ccc(-c3cccc(C(C)(C)C(=O)O)c3)cc2)Cc2ccc(C(F)(F)F)o2)c1C [27/93]
< 100	100 to 1000	Cc1ccc2ccccc2c1C(=O)N(Cc1ccc(-c2cc(F)cc(C3(C(=O)O)CC3)c2)cc1)Cc1ccc(C(F)(F)F)o1 [27/76]
< 100	< 100	CCOC(=O)c1ccc(CN(Cc2ccc(-c3cccc(C(C)(C)C(=O)O)c3)cc2)C(=O)c2c(C)ccc3ccccc23)o1 [27/28]
< 100	100 to 1000	COc1c(C)nc2ccccc2c1C(=O)N(Cc1ccc(-c2cccc(C(C)(C)C(=O)O)c2)cc1)Cc1ccc(C(F)(F)F)o1 [27/81]
	1000 to 10000	Cc1ccc2ccccc2c1C(=O)N(Cc1ccc(-c2cc(F)c(CO)c(S(=O)(=O)CC(=O)O)c2)cc1)Cc1ccc(C(F)(F)F)o1 [22/8]
< 100	100 to 1000	Cc1ccc2ccccc2c1C(=O)N(Cc1ccc(-c2cccc(C(C)(C)C(=O)O)c2)cc1)Cc1ccc(C(F)F)o1 [27/36]
< 100	100 to 1000	Cc1ccc2ccccc2c1C(=O)N(Cc1ccc(-c2cccc(C(C)(O)C(=O)O)c2)cc1)Cc1ccc(C(F)(F)F)o1 (stereo not shown) [27/10]
100 to 1000	< 100	Cc1ccc2ccccc2c1C(=O)N(Cc1ccc(-c2cccc(C(C)(C)C(=O)O)c2)cc1)Cc1ccc(C#N)o1 [27/38]
< 100	< 100	Cc1ccc2ccccc2c1C(=O)N(Cc1ccc(-c2cccc(C(C)(C)C(=O)O)c2)cc1)Cc1ccc(C(F)(F)F)o1 [27/26]
< 100	100 to 1000	COc1ccc2c(c1CN(Cc1ccc(-c3cccc(C(C)(C)C(=O)O)c3)cc1)Cc1ccc(C(F)(F)F)o1)CCCC2 [27/17]
< 100	100 to 1000	COc1cc(-c2cccc(C(C)(C)C(=O)O)c2)ccc1CN(Cc1ccc(C(F)(F)F)o1)C(=O)c1c(C)ccc2ccccc12 [27/66]
< 100	< 100	Cc1ccc2ccccc2c1C(=O)N(Cc1ccc(C(F)(F)F)o1)Cc1ncc(-c2cccc(C(C)(C)C(=O)O)c2)cc1Cl [27/78]
< 100	100 to 1000	Cc1cc(C)c(C(=O)N(Cc2ccc(-c3cccc(C(C)(C)C(=O)O)c3)cc2)Cc2ccc(C(F)(F)F)o2)c(C)c1 [10/1]
< 100	< 100	COc1ccc2c(c1C(=O)N(Cc1ccc(-c3cccc(C(C)(C)C(=O)O)c3)cc1)Cc1ccc(C(F)(F)F)o1)CCCC2 [27/45]
< 100	< 100	Cc1ccc2ccccc2c1C(=O)N(Cc1ccc(-c2cccc([C@@H](C)C(=O)O)c2)cc1)Cc1ccc(C(F)(F)F)o1 [10/5]
